Experiments:
hNPFF2 = target: T1, hNPFF2 (Homo sapiens, UniProt Q9Y5X5); assay: Receptor binding assay with [3H]-FFRFamide on CHO cell membranes expressing SF-hNPFFR2; conditions: [3H]-FFRF-NH2 radioligand, mean of at least two experiments; for Ki: read-out: Ki NPFF2
T1 construct: The cDNA encoding the full-length human NPFFR1 and human NPFFR2; expressed in transfected cells
From the text: (§1) The cDNA encoding the full-length human NPFFR1 and human NPFFR2 were subcloned into the pcDNA3 expression vector (Invitrogen, Cergy Pontoise, France) using standard molecular biology methods. A sequence encoding a signal sequence and a Flag epitope was fused to the 5' coding sequence of both hNPFFR1 and hNPFFR2 cDNA according to (Guan et al., 1992) resulting in a SF-hNPFFR1 and SF-hNPFFR2 constructs. These contructs were stably transfected into CHO cells.
(§2) Membranes from CHO cells stably expressing SF-hNPFFR1 or SF-hNPFFR2 were prepared as described (Becker et al., 1999). SF-hNPFFR1 or SF-hNPFFR2 membranes (10µg) were incubated for 30 min at 25 °C in a final volume of 0.5 ml containing 50 mM HEPES pH 7.4, 1 mM CaCl2, 1 mM MgCl2, 0.1% bovine serum albumin, 10 nM and 3 nM [^3H]-FFRFamide (CEA, Paris; specific activity, 13,6 Ci/mmol) for […], respectively and the ligands to be tested. Non-specific binding was determined in presence of 1 µM neuropeptide FF for SF-hNPFFR2 and 1 µM neuropeptide VF for SF -hNPFFR1. Typical total and nonspecific binding were 1200 and 200 dpm, respectively for SF-hNPFFR1 and SF-hNPFFR2. Incubation mixtures were rapidly filtered and washed with 50 mM HEPES pH 7.4, 1 mM CaCl2, 1 mM MgCl2, on 96 wells GF/B unifilter (Perkin Elmer). Unifilter plates where then dryied for 1hr at 65°C. Bound radioactivity was determined by scintillation counting with 30 µl of scintillation cocktail (O-scint, Perkin Elmer) per well on a Topcount scintillation apparatus (Perkin Elmer).

hNPFF1 = target: T2, hNPFF1 (Homo sapiens, UniProt Q9GZQ6); assay: Receptor binding assay with [3H]-FFRFamide on CHO cell membranes expressing SF-hNPFFR1; conditions: [3H]-FFRF-NH2 radioligand, mean of at least two experiments; for Ki: read-out: Ki NPFF1
T2 construct: The cDNA encoding the full-length human NPFFR1 and human NPFFR2; expressed in transfected cells
From the text: as §1, §2

T2 sequence (Q9GZQ6 whole entry): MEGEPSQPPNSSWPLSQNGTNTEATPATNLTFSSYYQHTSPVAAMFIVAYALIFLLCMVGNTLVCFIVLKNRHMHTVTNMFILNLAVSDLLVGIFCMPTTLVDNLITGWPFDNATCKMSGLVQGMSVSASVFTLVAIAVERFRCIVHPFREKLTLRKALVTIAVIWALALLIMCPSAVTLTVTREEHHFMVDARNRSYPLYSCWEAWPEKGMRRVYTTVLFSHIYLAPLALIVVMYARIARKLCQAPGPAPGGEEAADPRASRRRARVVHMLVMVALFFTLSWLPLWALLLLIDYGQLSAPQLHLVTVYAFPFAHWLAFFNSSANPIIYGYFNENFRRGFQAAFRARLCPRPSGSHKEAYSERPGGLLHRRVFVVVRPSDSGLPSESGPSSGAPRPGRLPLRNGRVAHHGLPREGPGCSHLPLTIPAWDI
T1 sequence (Q9Y5X5 whole entry): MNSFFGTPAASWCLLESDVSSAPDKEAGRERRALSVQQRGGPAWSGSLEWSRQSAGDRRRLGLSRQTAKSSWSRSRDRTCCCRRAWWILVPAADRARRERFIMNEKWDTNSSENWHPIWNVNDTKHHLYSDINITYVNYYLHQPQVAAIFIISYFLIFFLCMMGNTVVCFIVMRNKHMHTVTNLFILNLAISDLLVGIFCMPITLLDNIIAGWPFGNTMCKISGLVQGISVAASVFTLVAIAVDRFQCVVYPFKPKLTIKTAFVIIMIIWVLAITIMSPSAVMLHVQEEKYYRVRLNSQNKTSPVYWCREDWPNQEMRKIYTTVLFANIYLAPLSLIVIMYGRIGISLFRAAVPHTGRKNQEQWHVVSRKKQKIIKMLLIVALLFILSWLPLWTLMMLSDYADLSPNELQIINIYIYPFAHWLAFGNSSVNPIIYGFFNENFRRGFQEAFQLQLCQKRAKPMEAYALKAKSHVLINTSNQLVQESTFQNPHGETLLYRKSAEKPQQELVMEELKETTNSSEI

| SMILES | Ki (hNPFF2) | Ki (hNPFF1) | inhibition at 0.5 µM (hNPFF2) | inhibition at 5 µM (hNPFF2) | inhibition at 0.5 µM (hNPFF1) | inhibition at 5 µM (hNPFF1) |
| --- | --- | --- | --- | --- | --- | --- |
| O=C(N[C@@H](CCCNCc1ccccc1)C(=O)NCCc1ccccc1)c1ccccc1-c1ccccc1 [Compound 1, (2S)-5-(benzylamino)-N-(2-phenylethyl)-2-[(2-phenylphenyl)formamido]pentanamide] | 2300 ± 66 nM | 240 ± 38 nM |  |  |  |  |
| O=C(N[C@H](CCCNCc1ccccc1)C(=O)NCCc1ccccc1)c1ccccc1-c1ccccc1 [Compound 2, (2R)-5-(benzylamino)-N-(2-phenylethyl)-2-[(2-phenylphenyl)formamido]pentanamide] | 910 ± 94 nM | 480 ± 33 nM |  |  |  |  |
| O=C(N[C@@H](CCCNCCc1ccccc1)C(=O)NCCc1ccccc1)c1ccccc1-c1ccccc1 [Compound 3, (2S)-N-(2-phenylethyl)-5-[(2-phenylethyl)amino]-2-[(2-phenylphenyl)formamido]pentanamide] |  |  | 15 ± 15% | 24 ± 6% | 29 ± 2% | 61 ± 1% |
| CC(C)CNCCC[C@H](NC(=O)c1ccccc1-c1ccccc1)C(=O)NCCc1ccccc1 [Compound 4, (2S)-5-[(2-methylpropyl)amino]-N-(2-phenylethyl)-2-[(2-phenylphenyl)formamido]pentanamide] |  |  | 2 ± 6% | 7 ± 15% | 14 ± 1% | 23% |
| CN(CCc1ccccc1)C(=O)[C@H](CCCNCc1ccccc1)NC(=O)c1ccccc1-c1ccccc1 [Compound 5, (2S)-5-(benzylamino)-N-methyl-N-(2-phenylethyl)-2-[(2-phenylphenyl)formamido]pentanamide] | 1300 ± 590 nM | 56 ± 11 nM |  |  |  |  |
| O=C(N[C@@H](CCCCNCc1ccccc1)C(=O)NCCc1ccccc1)c1ccccc1-c1ccccc1 [Compound 6, (2S)-6-(benzylamino)-N-(2-phenylethyl)-2-[(2-phenylphenyl)formamido]hexanamide] | 720 ± 59 nM | 210 ± 39 nM |  |  |  |  |
| O=C(N[C@H](CCCCNCc1ccccc1)C(=O)NCCc1ccccc1)c1ccccc1-c1ccccc1 [Compound 7, (2R)-6-(benzylamino)-N-(2-phenylethyl)-2-[(2-phenylphenyl)formamido]hexanamide] | 605 ± 180 nM | 22 ± 4 nM |  |  |  |  |
| COc1ccccc1CNCCC[C@H](NC(=O)c1ccccc1-c1ccccc1)C(=O)NCCc1ccccc1 [Compound 8, (2S)-5-{[(2-methoxyphenyl)methyl]amino}-N-(2-phenylethyl)-2-[(2-phenylphenyl)formamido]pentanamide] | 103 ± 44 nM | 23 ± 4 nM |  |  |  |  |
| COc1cccc(CNCCC[C@H](NC(=O)c2ccccc2-c2ccccc2)C(=O)NCCc2ccccc2)c1 [Compound 9, (2S)-5-{[(3-methoxyphenyl)methyl]amino}-N-(2-phenylethyl)-2-[(2-phenylphenyl)formamido]pentanamide] |  |  | 9 ± 1% | 45% | 21 ± 4% | 60 ± 3% |
| COc1ccc(CNCCC[C@H](NC(=O)c2ccccc2-c2ccccc2)C(=O)NCCc2ccccc2)cc1 [Compound 10, (2S)-5-{[(4-methoxyphenyl)methyl]amino}-N-(2-phenylethyl)-2-[(2-phenylphenyl)formamido]pentanamide] |  | 30 ± 2 nM | 11 ± 20% | 40 ± 2% |  |  |
| O=C(N[C@@H](CCCNC1CCCCC1)C(=O)NCCc1ccccc1)c1ccccc1-c1ccccc1 [Compound 11, (2S)-5-(cyclohexylamino)-N-(2-phenylethyl)-2-[(2-phenylphenyl)formamido]pentanamide] |  |  | 8 ± 3% | 26 ± 8% | 49 ± 37% | 37 ± 1% |
| O=C(N[C@@H](CCCNCc1ccccc1Cl)C(=O)NCCc1ccccc1)c1ccccc1-c1ccccc1 [Compound 12, (2S)-5-{[(2-chlorophenyl)methyl]amino}-N-(2-phenylethyl)-2-[(2-phenylphenyl)formamido]pentanamide] |  |  | 25 ± 5% | 64 ± 3% | 32 ± 1% | 74 ± 2% |
| O=C(N[C@@H](CCCNCc1cccc(Cl)c1)C(=O)NCCc1ccccc1)c1ccccc1-c1ccccc1 [Compound 13, (2S)-5-{[(3-chlorophenyl)methyl]amino}-N-(2-phenylethyl)-2-[(2-phenylphenyl)formamido]pentanamide] |  | 59 ± 14 nM | 23 ± 17% | 67 ± 4% |  |  |
| O=C(N[C@@H](CCCNCc1ccc(Cl)cc1)C(=O)NCCc1ccccc1)c1ccccc1-c1ccccc1 [Compound 14, (2S)-5-{[(4-chlorophenyl)methyl]amino}-N-(2-phenylethyl)-2-[(2-phenylphenyl)formamido]pentanamide] |  | 45 ± 4 nM | 16 ± 2% | 54 ± 3% |  |  |
| CN(CCC[C@H](NC(=O)c1ccccc1-c1ccccc1)C(=O)NCCc1ccccc1)Cc1ccccc1 [Compound 15, (2S)-5-[benzyl(methyl)amino]-N-(2-phenylethyl)-2-[(2-phenylphenyl)formamido]pentanamide] | 1100 ± 510 nM | 680 ± 160 nM |  |  |  |  |
| COc1ccccc1CN(C)CCC[C@H](NC(=O)c1ccccc1-c1ccccc1)C(=O)NCCc1ccccc1 [Compound 16, (2S)-5-{[(2-methoxyphenyl)methyl](methyl)amino}-N-(2-phenylethyl)-2-[(2-phenylphenyl)formamido]pentanamide] |  |  | 6 ± 13% | 47 ± 1% | 9 ± 4% | 50 ± 10% |
| COc1ccc(CN(C)CCC[C@H](NC(=O)c2ccccc2-c2ccccc2)C(=O)NCCc2ccccc2)cc1OC [Compound 17, (2S)-5-{[(3,4-dimethoxyphenyl)methyl](methyl)amino}-N-(2-phenylethyl)-2-[(2-phenylphenyl)formamido]pentanamide] |  |  | 18 ± 2% | 48 ± 3% | 17 ± 5% | 65 ± 6% |
| CN(CCC[C@H](NC(=O)c1ccccc1-c1ccccc1)C(=O)NCCc1ccccc1)Cc1cccc(Cl)c1 [Compound 18, (2S)-5-{[(3-chlorophenyl)methyl](methyl)amino}-N-(2-phenylethyl)-2-[(2-phenylphenyl)formamido]pentanamide] |  |  | 8 ± 5% | 40 ± 3% | 8 ± 3% | 45 ± 2% |
| CN(CCC[C@H](NC(=O)c1ccccc1-c1ccccc1)C(=O)NCCc1ccccc1)Cc1ccccc1Cl [Compound 19, (2S)-5-{[(2-chlorophenyl)methyl](methyl)amino}-N-(2-phenylethyl)-2-[(2-phenylphenyl)formamido]pentanamide] |  |  | 0% | 39 ± 7% | 16 ± 5% | 60 ± 2% |
| CN(CCC[C@H](NC(=O)c1ccccc1-c1ccccc1)C(=O)NCCc1ccccc1)Cc1ccc(Cl)cc1 [Compound 20, (2S)-5-{[(4-chlorophenyl)methyl](methyl)amino}-N-(2-phenylethyl)-2-[(2-phenylphenyl)formamido]pentanamide] |  |  | 11 ± 3% | 39 ± 1% | 14 ± 7% | 51 ± 2% |
| COc1ccc(CN(C)CCC[C@H](NC(=O)c2ccccc2-c2ccccc2)C(=O)NCCc2ccccc2)cc1 [Compound 21, (2S)-5-{[(4-methoxyphenyl)methyl](methyl)amino}-N-(2-phenylethyl)-2-[(2-phenylphenyl)formamido]pentanamide] |  |  | 0% | 47% | 12 ± 10% | 58 ± 14% |

— patent publication EP2669276A1 (Université de Strasbourg, priority 2012, dated 2013)
